In the NIST ThermoML archive (doi:10.1021/acs.jced.7b00694):

Experiment: xn = mol fraction of the nth substance listed
Details: Gas, Buoyancy - hydrostatic balance with magnetic suspension - one sinker

[HH] [hydrogen] + N#N
Details | mass density [kg/m3]
250.04 K, 11001 kPa, x2 = 0.9 | 137.2
250.04 K, 11002 kPa, x2 = 0.5001 | 76.353
250.04 K, 12001 kPa, x2 = 0.5001 | 82.831
250.04 K, 12002 kPa, x2 = 0.9 | 149.273
250.04 K, 13003 kPa, x2 = 0.5001 | 89.231
250.04 K, 13005 kPa, x2 = 0.9 | 161.179
250.04 K, 14001 kPa, x2 = 0.5001 | 95.51
250.04 K, 15005 kPa, x2 = 0.5001 | 101.724
250.04 K, 15008 kPa, x2 = 0.9 | 184.307
250.04 K, 16003 kPa, x2 = 0.5001 | 107.801
250.04 K, 17004 kPa, x2 = 0.5001 | 113.79
250.04 K, 17014 kPa, x2 = 0.9 | 206.478
250.04 K, 18007 kPa, x2 = 0.5001 | 119.684
250.04 K, 18011 kPa, x2 = 0.9 | 217.113
250.04 K, 19005 kPa, x2 = 0.5001 | 125.441
250.04 K, 19653 kPa, x2 = 0.9 | 234.021
250.04 K, 19934 kPa, x2 = 0.5001 | 130.7
250.05 K, 14008 kPa, x2 = 0.9 | 172.872
250.05 K, 16004 kPa, x2 = 0.9 | 195.446
250.05 K, 19014 kPa, x2 = 0.9 | 227.523
260.02 K, 999 kPa, x2 = 0.95 | 12.396
260.02 K, 1998 kPa, x2 = 0.95 | 24.915
260.02 K, 2987 kPa, x2 = 0.95 | 37.39
260.02 K, 3998 kPa, x2 = 0.95 | 50.206
260.02 K, 4998 kPa, x2 = 0.95 | 62.921
260.02 K, 5998 kPa, x2 = 0.95 | 75.652
260.02 K, 6997 kPa, x2 = 0.95 | 88.348
260.02 K, 8004 kPa, x2 = 0.95 | 101.083
260.02 K, 8999 kPa, x2 = 0.95 | 113.598
260.02 K, 10003 kPa, x2 = 0.95 | 126.121
260.02 K, 11004 kPa, x2 = 0.95 | 138.476
260.02 K, 12004 kPa, x2 = 0.95 | 150.65
260.02 K, 13007 kPa, x2 = 0.95 | 162.68
260.02 K, 13989 kPa, x2 = 0.95 | 174.256
260.02 K, 15009 kPa, x2 = 0.95 | 186.058
260.02 K, 16012 kPa, x2 = 0.95 | 197.415
260.02 K, 17003 kPa, x2 = 0.95 | 208.387
260.02 K, 18018 kPa, x2 = 0.95 | 219.361
260.02 K, 19020 kPa, x2 = 0.95 | 229.93
260.02 K, 19954 kPa, x2 = 0.95 | 239.529
260.03 K, 998 kPa, x2 = 0.9 | 11.773
260.03 K, 2000 kPa, x2 = 0.9 | 23.676
260.04 K, 2987 kPa, x2 = 0.9 | 35.462
260.04 K, 3998 kPa, x2 = 0.9 | 47.566
260.04 K, 4998 kPa, x2 = 0.9 | 59.561
260.04 K, 5998 kPa, x2 = 0.9 | 71.547
260.04 K, 6999 kPa, x2 = 0.9 | 83.502
260.04 K, 7999 kPa, x2 = 0.9 | 95.394
260.04 K, 9000 kPa, x2 = 0.9 | 107.209
260.04 K, 10001 kPa, x2 = 0.9 | 118.929
260.04 K, 11002 kPa, x2 = 0.9 | 130.507
260.04 K, 12001 kPa, x2 = 0.9 | 141.918
260.04 K, 13005 kPa, x2 = 0.9 | 153.211
260.04 K, 14004 kPa, x2 = 0.9 | 164.255
260.04 K, 15004 kPa, x2 = 0.9 | 175.116
260.04 K, 16007 kPa, x2 = 0.9 | 185.789
260.04 K, 17014 kPa, x2 = 0.9 | 196.279
260.04 K, 18009 kPa, x2 = 0.9 | 206.415
260.04 K, 19010 kPa, x2 = 0.9 | 216.361
260.04 K, 19736 kPa, x2 = 0.9 | 223.429
274.98 K, 997 kPa, x2 = 0.9 | 11.103
274.98 K, 1997 kPa, x2 = 0.9 | 22.285
274.99 K, 997 kPa, x2 = 0.95 | 11.688
274.99 K, 998 kPa, x2 = 0.5001 | 6.537
274.99 K, 1998 kPa, x2 = 0.5001 | 13.041
274.99 K, 1998 kPa, x2 = 0.95 | 23.478
274.99 K, 2986 kPa, x2 = 0.95 | 35.164
274.99 K, 2997 kPa, x2 = 0.9 | 33.49
274.99 K, 2998 kPa, x2 = 0.5001 | 19.501
274.99 K, 3997 kPa, x2 = 0.5001 | 25.901
274.99 K, 3997 kPa, x2 = 0.9 | 44.699
274.99 K, 3997 kPa, x2 = 0.95 | 47.147
274.99 K, 4997 kPa, x2 = 0.5001 | 32.248
274.99 K, 4997 kPa, x2 = 0.95 | 58.999
274.99 K, 4998 kPa, x2 = 0.9 | 55.901
274.99 K, 5997 kPa, x2 = 0.5001 | 38.535
274.99 K, 5998 kPa, x2 = 0.9 | 67.065
274.99 K, 5998 kPa, x2 = 0.95 | 70.84
274.99 K, 6997 kPa, x2 = 0.5001 | 44.758
274.99 K, 6998 kPa, x2 = 0.9 | 78.183
274.99 K, 6998 kPa, x2 = 0.95 | 82.636
274.99 K, 7997 kPa, x2 = 0.5001 | 50.911
274.99 K, 7998 kPa, x2 = 0.9 | 89.232
274.99 K, 8000 kPa, x2 = 0.95 | 94.385
274.99 K, 8998 kPa, x2 = 0.5001 | 57.003
274.99 K, 9000 kPa, x2 = 0.9 | 100.212
274.99 K, 9000 kPa, x2 = 0.95 | 106.023
274.99 K, 9998 kPa, x2 = 0.5001 | 63.009
274.99 K, 9998 kPa, x2 = 0.9 | 111.047
274.99 K, 10001 kPa, x2 = 0.95 | 117.586
274.99 K, 10998 kPa, x2 = 0.5001 | 68.948
274.99 K, 11001 kPa, x2 = 0.9 | 121.821
274.99 K, 11002 kPa, x2 = 0.95 | 129.012
274.99 K, 11996 kPa, x2 = 0.5001 | 74.789
274.99 K, 12001 kPa, x2 = 0.9 | 132.405
274.99 K, 12003 kPa, x2 = 0.95 | 140.289
274.99 K, 13000 kPa, x2 = 0.5001 | 80.586
274.99 K, 13002 kPa, x2 = 0.9 | 142.866
274.99 K, 13002 kPa, x2 = 0.95 | 151.394
274.99 K, 13998 kPa, x2 = 0.5001 | 86.267
